# Assays:
# Assay in all cases: Kinase panel profiling at 1 µmol/L (mobility shift assay, Carna)
# BRK = BRK (Homo sapiens, UniProt Q13882); conditions: for Percentage inhibition of kinase enzyme activity: BRK, 1 µmol/L of BTK inhibitor
# IRR = molecular target: T1, IRR (Homo sapiens, UniProt P14616); type: biochemical; conditions: 1 µmol/L of BTK inhibitor
# T1 construct: purchased Carna Biosciences
# CDC7/ASK = molecular target: T2, CDC7/ASK (Homo sapiens, UniProt O00311); type: biochemical; conditions: 1 µmol/L of BTK inhibitor
# T2 construct: purchased Carna Biosciences
# T2 sequence (O00311 whole entry): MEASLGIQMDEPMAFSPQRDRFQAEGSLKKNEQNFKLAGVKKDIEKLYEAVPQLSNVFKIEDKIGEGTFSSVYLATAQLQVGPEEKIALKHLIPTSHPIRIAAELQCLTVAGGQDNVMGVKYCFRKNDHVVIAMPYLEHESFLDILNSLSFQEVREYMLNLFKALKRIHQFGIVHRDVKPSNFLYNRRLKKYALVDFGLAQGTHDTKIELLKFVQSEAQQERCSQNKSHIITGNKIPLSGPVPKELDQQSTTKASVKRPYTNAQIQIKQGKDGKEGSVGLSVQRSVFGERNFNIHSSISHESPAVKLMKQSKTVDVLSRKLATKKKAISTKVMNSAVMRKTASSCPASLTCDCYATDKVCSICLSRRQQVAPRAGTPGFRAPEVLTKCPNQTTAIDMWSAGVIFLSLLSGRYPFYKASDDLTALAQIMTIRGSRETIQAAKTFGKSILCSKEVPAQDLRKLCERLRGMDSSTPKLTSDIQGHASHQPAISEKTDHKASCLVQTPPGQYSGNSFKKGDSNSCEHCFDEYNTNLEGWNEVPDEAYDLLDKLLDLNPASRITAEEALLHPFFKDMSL
# T2 sequence (Q9UBU7 whole entry partner): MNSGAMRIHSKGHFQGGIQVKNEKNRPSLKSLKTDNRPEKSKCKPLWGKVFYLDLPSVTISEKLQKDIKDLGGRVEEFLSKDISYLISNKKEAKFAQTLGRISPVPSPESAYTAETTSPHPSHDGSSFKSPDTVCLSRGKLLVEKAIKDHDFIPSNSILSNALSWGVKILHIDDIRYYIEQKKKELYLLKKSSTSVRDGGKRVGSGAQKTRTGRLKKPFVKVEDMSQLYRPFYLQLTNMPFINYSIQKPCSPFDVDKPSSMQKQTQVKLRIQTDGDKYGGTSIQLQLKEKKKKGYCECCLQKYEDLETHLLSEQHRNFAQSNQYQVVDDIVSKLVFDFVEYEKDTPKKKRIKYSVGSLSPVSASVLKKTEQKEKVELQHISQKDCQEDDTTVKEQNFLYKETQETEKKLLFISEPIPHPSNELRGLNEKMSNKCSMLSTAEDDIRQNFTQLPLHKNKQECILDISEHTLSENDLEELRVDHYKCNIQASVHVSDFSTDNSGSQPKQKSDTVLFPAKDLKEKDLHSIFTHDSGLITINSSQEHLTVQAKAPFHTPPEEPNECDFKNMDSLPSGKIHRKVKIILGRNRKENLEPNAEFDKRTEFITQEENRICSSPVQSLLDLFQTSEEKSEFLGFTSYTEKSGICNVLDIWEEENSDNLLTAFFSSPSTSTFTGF
# MNK1 = molecular target: T3, MNK1 (Homo sapiens, UniProt Q9BUB5); type: biochemical; conditions: 1 µmol/L of BTK inhibitor
# T3 construct: purchased Carna Biosciences
# T3 sequence (Q9BUB5 whole entry): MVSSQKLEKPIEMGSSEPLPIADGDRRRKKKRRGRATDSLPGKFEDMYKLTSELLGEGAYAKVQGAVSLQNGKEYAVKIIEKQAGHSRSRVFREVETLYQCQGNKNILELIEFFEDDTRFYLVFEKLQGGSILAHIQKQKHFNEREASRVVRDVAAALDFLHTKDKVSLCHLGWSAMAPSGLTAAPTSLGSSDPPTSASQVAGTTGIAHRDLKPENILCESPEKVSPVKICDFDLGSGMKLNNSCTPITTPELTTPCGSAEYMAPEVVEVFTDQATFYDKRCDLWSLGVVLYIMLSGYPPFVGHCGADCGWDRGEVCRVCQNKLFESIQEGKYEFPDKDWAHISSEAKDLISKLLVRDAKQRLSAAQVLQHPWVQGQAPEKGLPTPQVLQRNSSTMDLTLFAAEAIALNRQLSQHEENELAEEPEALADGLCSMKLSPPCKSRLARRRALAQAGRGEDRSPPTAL
# EPHA6 = molecular target: T4, EPHA6 (Homo sapiens, UniProt Q9UF33); type: biochemical; conditions: 1 µmol/L of BTK inhibitor
# T4 construct: purchased Carna Biosciences
# T4 sequence (Q9UF33 23-1036): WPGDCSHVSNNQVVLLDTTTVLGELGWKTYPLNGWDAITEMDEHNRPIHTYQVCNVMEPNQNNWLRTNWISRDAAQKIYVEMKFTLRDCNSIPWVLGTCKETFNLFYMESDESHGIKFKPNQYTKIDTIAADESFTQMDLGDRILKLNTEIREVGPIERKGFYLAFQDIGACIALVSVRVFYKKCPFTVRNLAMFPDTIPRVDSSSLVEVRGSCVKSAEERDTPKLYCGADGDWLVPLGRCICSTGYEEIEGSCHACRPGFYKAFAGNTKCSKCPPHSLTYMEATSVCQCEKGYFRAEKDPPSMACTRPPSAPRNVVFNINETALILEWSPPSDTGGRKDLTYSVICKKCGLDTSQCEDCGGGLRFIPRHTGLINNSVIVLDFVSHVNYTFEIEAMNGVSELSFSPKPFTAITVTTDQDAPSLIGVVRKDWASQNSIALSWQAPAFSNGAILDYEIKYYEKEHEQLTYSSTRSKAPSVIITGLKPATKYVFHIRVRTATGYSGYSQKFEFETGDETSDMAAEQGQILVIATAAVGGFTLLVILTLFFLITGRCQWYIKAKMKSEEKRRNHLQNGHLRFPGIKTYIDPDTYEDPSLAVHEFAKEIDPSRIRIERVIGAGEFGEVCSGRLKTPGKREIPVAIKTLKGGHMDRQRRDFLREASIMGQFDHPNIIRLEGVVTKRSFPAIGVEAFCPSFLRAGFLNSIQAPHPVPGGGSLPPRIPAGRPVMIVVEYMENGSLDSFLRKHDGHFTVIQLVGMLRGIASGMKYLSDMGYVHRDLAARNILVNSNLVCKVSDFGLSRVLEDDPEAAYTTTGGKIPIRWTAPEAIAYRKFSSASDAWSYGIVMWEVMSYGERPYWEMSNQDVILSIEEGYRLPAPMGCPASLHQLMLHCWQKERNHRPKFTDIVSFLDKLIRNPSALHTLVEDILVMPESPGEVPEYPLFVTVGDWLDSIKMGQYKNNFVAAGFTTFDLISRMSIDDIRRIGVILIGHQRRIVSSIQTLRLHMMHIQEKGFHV
# EPHA8 = molecular target: T5, EPHA8 (Homo sapiens, UniProt P29322); type: biochemical; conditions: 1 µmol/L of BTK inhibitor
# T5 construct: purchased Carna Biosciences
# T5 sequence (P29322 28-1005): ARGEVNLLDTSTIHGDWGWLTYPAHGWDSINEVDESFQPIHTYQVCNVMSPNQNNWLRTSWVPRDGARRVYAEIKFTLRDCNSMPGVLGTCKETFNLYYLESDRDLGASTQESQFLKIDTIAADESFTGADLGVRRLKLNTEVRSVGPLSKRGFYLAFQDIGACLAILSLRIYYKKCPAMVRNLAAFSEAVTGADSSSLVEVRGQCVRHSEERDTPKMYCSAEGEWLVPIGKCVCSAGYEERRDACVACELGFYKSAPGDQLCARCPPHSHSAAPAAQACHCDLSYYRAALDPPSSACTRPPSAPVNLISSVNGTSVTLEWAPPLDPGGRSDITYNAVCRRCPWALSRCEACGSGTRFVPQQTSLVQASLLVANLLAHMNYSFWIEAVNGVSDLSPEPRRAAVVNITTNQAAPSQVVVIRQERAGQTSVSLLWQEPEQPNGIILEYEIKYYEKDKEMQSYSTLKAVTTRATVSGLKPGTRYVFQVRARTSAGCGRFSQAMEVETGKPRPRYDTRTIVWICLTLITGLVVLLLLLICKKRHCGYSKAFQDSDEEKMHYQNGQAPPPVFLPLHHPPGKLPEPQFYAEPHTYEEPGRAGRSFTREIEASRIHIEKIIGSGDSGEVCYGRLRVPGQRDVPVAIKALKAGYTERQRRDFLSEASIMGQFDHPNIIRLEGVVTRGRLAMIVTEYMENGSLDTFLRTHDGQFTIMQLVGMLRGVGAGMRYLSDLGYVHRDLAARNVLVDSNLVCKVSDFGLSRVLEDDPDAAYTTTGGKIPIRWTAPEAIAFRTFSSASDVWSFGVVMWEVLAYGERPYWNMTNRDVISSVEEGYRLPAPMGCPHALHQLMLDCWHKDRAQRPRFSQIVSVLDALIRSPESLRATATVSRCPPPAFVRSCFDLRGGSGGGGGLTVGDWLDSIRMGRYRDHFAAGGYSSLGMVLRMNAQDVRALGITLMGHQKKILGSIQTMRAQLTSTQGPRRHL
# ARG = molecular target: T6, ARG (Homo sapiens, UniProt P42684); type: biochemical; conditions: 1 µmol/L of BTK inhibitor
# T6 construct: purchased Carna Biosciences
# SRM = molecular target: T7, SRM (Homo sapiens, UniProt Q9H3Y6); type: biochemical; conditions: 1 µmol/L of BTK inhibitor
# T7 construct: purchased Carna Biosciences
# T7 sequence (Q9H3Y6 whole entry): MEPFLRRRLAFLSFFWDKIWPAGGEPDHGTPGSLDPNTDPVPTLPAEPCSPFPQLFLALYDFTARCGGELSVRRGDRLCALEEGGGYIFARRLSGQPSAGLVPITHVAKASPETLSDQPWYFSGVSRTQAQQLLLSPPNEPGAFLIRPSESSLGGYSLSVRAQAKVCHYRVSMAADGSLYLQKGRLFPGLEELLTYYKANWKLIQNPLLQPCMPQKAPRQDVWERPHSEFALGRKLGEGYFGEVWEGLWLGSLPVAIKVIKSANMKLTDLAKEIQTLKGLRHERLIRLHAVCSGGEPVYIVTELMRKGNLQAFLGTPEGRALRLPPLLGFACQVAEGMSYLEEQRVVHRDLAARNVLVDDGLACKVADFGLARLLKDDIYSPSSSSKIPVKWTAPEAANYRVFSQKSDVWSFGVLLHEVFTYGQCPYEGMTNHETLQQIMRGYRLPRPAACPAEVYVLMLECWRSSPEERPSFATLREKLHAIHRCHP
# FYN [isoform b] = molecular target: T8, FYN [isoform b] (Homo sapiens, UniProt P06241); type: biochemical; conditions: 1 µmol/L of BTK inhibitor
# T8 construct: purchased Carna Biosciences
# T8 sequence (P06241 1-534 isoform P06241-2): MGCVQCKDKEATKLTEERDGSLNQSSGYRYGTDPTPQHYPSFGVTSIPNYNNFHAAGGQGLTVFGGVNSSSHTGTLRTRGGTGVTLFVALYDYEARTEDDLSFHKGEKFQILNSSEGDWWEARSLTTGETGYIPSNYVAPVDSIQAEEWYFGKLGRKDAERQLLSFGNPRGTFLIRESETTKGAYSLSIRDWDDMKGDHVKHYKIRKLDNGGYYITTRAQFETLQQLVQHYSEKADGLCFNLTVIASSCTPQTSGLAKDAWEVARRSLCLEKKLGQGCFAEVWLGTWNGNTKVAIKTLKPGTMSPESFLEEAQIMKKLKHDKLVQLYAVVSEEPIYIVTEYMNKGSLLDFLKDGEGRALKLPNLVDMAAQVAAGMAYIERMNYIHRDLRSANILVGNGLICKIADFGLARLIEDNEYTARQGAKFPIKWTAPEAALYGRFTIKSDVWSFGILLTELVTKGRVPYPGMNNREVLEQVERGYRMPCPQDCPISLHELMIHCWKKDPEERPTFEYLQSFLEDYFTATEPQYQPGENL
# RET = molecular target: T9, RET (Homo sapiens, UniProt P07949); type: biochemical; conditions: 1 µmol/L of BTK inhibitor
# T9 construct: purchased Carna Biosciences
# PAK2 = molecular target: T10, PAK2 (Homo sapiens, UniProt Q13177); type: biochemical; conditions: 1 µmol/L of BTK inhibitor
# T10 construct: purchased Carna Biosciences
# T10 sequence (Q13177 whole entry): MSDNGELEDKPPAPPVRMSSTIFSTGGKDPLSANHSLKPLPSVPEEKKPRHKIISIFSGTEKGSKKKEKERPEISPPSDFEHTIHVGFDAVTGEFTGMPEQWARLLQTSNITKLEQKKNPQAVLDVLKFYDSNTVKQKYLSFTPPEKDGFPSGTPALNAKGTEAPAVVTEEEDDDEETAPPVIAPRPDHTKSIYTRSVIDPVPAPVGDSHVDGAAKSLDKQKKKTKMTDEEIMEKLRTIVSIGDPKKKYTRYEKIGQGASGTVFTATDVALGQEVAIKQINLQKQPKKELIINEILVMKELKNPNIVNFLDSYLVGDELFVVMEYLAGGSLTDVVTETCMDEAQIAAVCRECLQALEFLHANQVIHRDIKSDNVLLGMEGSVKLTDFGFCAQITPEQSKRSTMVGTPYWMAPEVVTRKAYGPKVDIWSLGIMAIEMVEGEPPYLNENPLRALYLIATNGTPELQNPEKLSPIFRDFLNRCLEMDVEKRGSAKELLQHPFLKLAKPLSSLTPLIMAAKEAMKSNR
# p38δ = molecular target: T11, p38δ (Homo sapiens, UniProt O15264); type: biochemical; conditions: 1 µmol/L of BTK inhibitor
# T11 construct: purchased Carna Biosciences
# T11 sequence (O15264 1-365): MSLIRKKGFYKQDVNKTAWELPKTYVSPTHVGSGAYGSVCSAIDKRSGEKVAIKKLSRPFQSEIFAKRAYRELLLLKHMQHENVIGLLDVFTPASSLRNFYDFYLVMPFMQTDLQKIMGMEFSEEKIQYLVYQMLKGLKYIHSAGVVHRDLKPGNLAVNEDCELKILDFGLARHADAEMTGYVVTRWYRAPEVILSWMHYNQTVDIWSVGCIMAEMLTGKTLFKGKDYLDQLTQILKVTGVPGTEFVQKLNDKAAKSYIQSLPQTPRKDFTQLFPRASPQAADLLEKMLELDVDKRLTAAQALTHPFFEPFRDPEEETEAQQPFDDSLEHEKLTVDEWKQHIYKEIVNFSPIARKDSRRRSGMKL
# BRK, sequence (Q13882 whole entry): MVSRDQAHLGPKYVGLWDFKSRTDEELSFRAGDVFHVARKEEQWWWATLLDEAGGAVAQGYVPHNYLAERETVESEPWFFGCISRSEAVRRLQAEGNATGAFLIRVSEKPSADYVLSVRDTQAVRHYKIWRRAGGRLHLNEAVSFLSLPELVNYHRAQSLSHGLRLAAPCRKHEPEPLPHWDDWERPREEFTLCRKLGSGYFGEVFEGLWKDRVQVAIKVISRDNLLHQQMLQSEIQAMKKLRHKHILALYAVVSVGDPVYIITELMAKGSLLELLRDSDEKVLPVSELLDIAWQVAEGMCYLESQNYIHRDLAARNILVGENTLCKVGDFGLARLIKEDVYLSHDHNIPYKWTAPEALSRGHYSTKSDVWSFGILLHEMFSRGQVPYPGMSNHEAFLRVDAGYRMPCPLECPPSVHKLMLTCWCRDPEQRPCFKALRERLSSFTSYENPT
# T1 sequence (P14616 27-1297): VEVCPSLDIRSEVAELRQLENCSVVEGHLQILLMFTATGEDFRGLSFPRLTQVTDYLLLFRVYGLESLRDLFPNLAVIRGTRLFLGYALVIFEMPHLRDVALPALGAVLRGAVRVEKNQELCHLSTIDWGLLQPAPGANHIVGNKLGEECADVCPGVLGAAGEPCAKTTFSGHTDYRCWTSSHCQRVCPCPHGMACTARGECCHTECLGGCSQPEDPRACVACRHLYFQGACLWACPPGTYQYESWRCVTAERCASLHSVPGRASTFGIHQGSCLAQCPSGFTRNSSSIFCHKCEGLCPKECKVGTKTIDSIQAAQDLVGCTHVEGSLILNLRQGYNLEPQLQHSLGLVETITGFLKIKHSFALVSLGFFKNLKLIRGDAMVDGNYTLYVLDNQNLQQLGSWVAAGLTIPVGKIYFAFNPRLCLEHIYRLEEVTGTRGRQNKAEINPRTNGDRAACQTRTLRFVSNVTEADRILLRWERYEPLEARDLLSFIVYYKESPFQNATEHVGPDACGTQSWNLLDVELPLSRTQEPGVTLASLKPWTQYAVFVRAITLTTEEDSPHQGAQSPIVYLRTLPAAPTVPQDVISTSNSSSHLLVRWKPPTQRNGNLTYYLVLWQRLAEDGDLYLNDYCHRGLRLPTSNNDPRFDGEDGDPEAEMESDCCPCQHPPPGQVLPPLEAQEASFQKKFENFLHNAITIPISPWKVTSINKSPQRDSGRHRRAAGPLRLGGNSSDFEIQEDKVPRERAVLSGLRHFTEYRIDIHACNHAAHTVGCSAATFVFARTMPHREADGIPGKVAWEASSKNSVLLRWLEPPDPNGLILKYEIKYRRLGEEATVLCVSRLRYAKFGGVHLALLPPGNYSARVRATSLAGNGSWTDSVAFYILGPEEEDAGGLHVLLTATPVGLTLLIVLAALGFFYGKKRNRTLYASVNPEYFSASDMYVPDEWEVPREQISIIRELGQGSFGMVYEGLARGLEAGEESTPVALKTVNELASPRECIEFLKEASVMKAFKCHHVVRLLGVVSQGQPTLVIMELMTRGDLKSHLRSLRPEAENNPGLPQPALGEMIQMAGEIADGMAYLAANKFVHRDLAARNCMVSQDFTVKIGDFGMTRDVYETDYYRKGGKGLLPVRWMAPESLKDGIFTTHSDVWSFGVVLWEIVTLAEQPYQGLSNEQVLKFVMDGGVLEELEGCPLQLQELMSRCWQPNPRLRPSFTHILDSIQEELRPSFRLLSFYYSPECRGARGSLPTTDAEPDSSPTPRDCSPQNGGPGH
structure (smiles),measurement,setting,value
CC#CC(=O)N1CCC[C@H]1c1nc(-c2ccc(C(=O)Nc3ccccn3)cc2)c2c(N)nccn12 [acalabrutinib],Percentage inhibition of kinase enzyme activity,BRK,51.05%
same,Percentage inhibition of kinase enzyme activity,IRR,-0.87%
same,Percentage inhibition of kinase enzyme activity,CDC7/ASK,-1.64%
same,Percentage inhibition of kinase enzyme activity,MNK1,11.59%
same,Percentage inhibition of kinase enzyme activity,EPHA6,-2.37%
same,Percentage inhibition of kinase enzyme activity,EPHA8,6.51%
same,Percentage inhibition of kinase enzyme activity,ARG,3.53%
same,Percentage inhibition of kinase enzyme activity,SRM,39.49%
same,Percentage inhibition of kinase enzyme activity,FYN [isoform b],-1.25%
same,Percentage inhibition of kinase enzyme activity,RET,13.72%
same,Percentage inhibition of kinase enzyme activity,PAK2,-5.20%
same,Percentage inhibition of kinase enzyme activity,p38δ,-1.74%
C=CC(=O)N1CCC[C@@H](n2nc(-c3ccc(Oc4ccccc4)cc3)c3c(N)ncnc32)C1 [ibrutinib],Percentage inhibition of kinase enzyme activity,BRK,102.78%
same,Percentage inhibition of kinase enzyme activity,IRR,11.54%
same,Percentage inhibition of kinase enzyme activity,CDC7/ASK,-0.99%
same,Percentage inhibition of kinase enzyme activity,MNK1,14.52%
same,Percentage inhibition of kinase enzyme activity,EPHA6,92.64%
same,Percentage inhibition of kinase enzyme activity,EPHA8,54.68%
same,Percentage inhibition of kinase enzyme activity,ARG,6.86%
same,Percentage inhibition of kinase enzyme activity,SRM,102.20%
same,Percentage inhibition of kinase enzyme activity,FYN [isoform b],86.77%
same,Percentage inhibition of kinase enzyme activity,RET,87.66%
same,Percentage inhibition of kinase enzyme activity,PAK2,-5.81%
same,Percentage inhibition of kinase enzyme activity,p38δ,-3.68%
O=C(c1ccc(Oc2ccccc2)cc1Cl)c1c[nH]c2ncnc(N[C@@H]3CC[C@@H](CO)OC3)c12 [nemtabrutinib],Percentage inhibition of kinase enzyme activity,IRR,77.13%
same,Percentage inhibition of kinase enzyme activity,CDC7/ASK,-1.26%
same,Percentage inhibition of kinase enzyme activity,MNK1,7.10%
same,Percentage inhibition of kinase enzyme activity,EPHA6,49.03%
same,Percentage inhibition of kinase enzyme activity,EPHA8,50.84%
same,Percentage inhibition of kinase enzyme activity,ARG,62.68%
same,Percentage inhibition of kinase enzyme activity,SRM,102.16%
same,Percentage inhibition of kinase enzyme activity,RET,98.99%
same,Percentage inhibition of kinase enzyme activity,PAK2,93.68%
same,Percentage inhibition of kinase enzyme activity,p38δ,-5.79%
COc1ccc(F)cc1C(=O)NCc1ccc(-c2nn([C@@H](C)C(F)(F)F)c(N)c2C(N)=O)cc1 [pirtobrutinib],Percentage inhibition of kinase enzyme activity,BRK,89.81%
same,inhibition at 1 µM,BRK; read-out: Inhibition of BRK,> 75%
same,Percentage inhibition of kinase enzyme activity,IRR,-6.47%
same,Percentage inhibition of kinase enzyme activity,CDC7/ASK,-5.67%
same,Percentage inhibition of kinase enzyme activity,MNK1,2.15%
same,Percentage inhibition of kinase enzyme activity,EPHA6,6.36%
same,Percentage inhibition of kinase enzyme activity,EPHA8,-19.48%
same,Percentage inhibition of kinase enzyme activity,ARG,-0.47%
same,Percentage inhibition of kinase enzyme activity,SRM,18.61%
same,Percentage inhibition of kinase enzyme activity,FYN [isoform b],15.19%
same,Percentage inhibition of kinase enzyme activity,RET,51.77%
same,Percentage inhibition of kinase enzyme activity,PAK2,8.29%
same,Percentage inhibition of kinase enzyme activity,p38δ,-1.92%
C=CC(=O)N1CCC([C@@H]2CCNc3c(C(N)=O)c(-c4ccc(Oc5ccccc5)cc4)nn32)CC1 [zanubrutinib],Percentage inhibition of kinase enzyme activity,BRK,98.97%
same,Percentage inhibition of kinase enzyme activity,IRR,34.27%
same,Percentage inhibition of kinase enzyme activity,EPHA6,0.76%
same,Percentage inhibition of kinase enzyme activity,EPHA8,-2.10%
same,Percentage inhibition of kinase enzyme activity,SRM,57.79%
same,Percentage inhibition of kinase enzyme activity,RET,18.89%
same,Percentage inhibition of kinase enzyme activity,PAK2,9.82%

# Source: publication PMC12586182 (Frontiers in Oncology, 2025)
